The values that follow come from patent US10233186B2, “Inhibitors of activin receptor-like kinase” (BLUEPRINT MEDICINES CORPORATION, priority 2016, dated 2019).

SMILES strings stand for the structures.

One test concerns the target T1, human ALK2 R206H (Homo sapiens, UniProt Q04771, R206H).
T1 construct: expressed in transfected cells; host or cells: HEK293 (ATCC CRL1573), lentivirus transduction, blasticidin selection
T1 sequence (Q04771 21-509 R206H): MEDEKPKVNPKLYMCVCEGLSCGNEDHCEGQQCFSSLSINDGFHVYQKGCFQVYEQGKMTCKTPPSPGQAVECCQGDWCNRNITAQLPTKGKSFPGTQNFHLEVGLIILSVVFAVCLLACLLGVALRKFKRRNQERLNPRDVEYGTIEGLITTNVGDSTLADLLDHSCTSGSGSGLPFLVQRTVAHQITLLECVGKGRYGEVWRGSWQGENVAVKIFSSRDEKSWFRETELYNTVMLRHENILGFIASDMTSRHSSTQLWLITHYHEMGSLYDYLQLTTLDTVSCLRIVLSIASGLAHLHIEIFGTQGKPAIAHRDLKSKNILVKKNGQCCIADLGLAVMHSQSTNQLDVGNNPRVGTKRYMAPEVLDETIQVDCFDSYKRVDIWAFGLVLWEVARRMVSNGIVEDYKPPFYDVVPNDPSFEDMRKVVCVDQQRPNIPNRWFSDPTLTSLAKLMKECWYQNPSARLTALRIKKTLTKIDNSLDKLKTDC
Kind of test: Cell-based ALK2-R206H cell activity assay (Smad1-Ser463/Ser465 phosphorylation by AlphaLISA in HEK293-ALK2-R206H cells). Conditions: read-out: Cell Line (Cell Assay IC50). Put shortly:
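Stable HEK293 cells expressing C-terminally FLAG-tagged human ALK2 R206H (lentiviral, blasticidin-selected) were treated with compounds in 10-point, 3-fold dilutions from 10 μM or 1 μM top, in duplicate. Smad1 Ser463/Ser465 phosphorylation was read by AlphaLISA.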
For orientation: Alpha assays give light when donor and acceptor beads are brought close together.

In test [1] the target is T2, ALK2 R206H (GST-tagged mutant ALK2) (Homo sapiens, UniProt Q04771, R206H).
T2 construct: purchased Carna Bioscience or ThermoFisher 09-148 or PV6232
T2 sequence (Q04771 21-509 R206H): T1 sequence (Q04771 21-509 R206H)
The test is described as follows: ALK binding assay (LANTHASCREEN TR-FRET competitive binding, displacement of Kinase Tracer 178). Particulars: ALK2 R206H, LANTHASCREEN TR-FRET competitive binding; read-out: Binding Assay (IC50).

By IC50 is commonly meant the concentration that inhibits the measured activity by half. For the compound `COCC(C)N1CCC(OC)(c2ccc(-c3cc4c(N5CCN(C(=O)C6CC6)CC5)ccnn4c3)nc2)CC1` (stereo not shown) [Compound 710], the IC50 at human ALK2 R206H was < 100 nM; in test [1] it was < 10 nM.
For `COC[C@H](C)N1CCC(OC)(c2ccc(-c3cc4c(N5CCN(C(=O)C6CC6)CC5)ccnn4c3)nc2)CC1` [Compound 711], the IC50 was < 100 nM at human ALK2 R206H and < 10 nM in test [1].
Take `CCOC1(c2ccc(-c3cc4c(N5CCN(C(=O)NC(C)C)CC5)ccnn4c3)cc2)CCN(C(C)C)CC1` [Compound 712]: the figures for the IC50 (on human ALK2 R206H; in test [1]) were < 100 nM and < 10 nM, respectively.
Consider `COC1(c2ccc(-c3cc4c(N5CCN(C(=O)OC6COC6)CC5)ccnn4c3)cc2)CCN(C(C)C)CC1` [Compound 713], for which the IC50 was < 100 nM at human ALK2 R206H and < 10 nM in test [1].
On to `COC1(c2ccc(-c3cc4c(N5CCN(C(=O)NC(C)C)CC5)ccnn4c3)nc2)CCN(C2COC2)CC1` [Compound 714], for which the IC50 is < 100 nM at human ALK2 R206H and < 10 nM in test [1].
For `CCOC1(c2ccc(-c3cc4c(N5CCN(C(=O)NC(C)C)CC5)ccnn4c3)nc2)CCN(C(C)C)CC1` [Compound 715], the results for the concentration for half-maximal inhibition (IC50) (at human ALK2 R206H; in test [1]) were < 100 nM and < 10 nM, respectively.
The matching figures for `CCO[C@@]1(c2ccc(-c3cc4c(N5CCN(C(=O)NC(C)C)CC5)ccnn4c3)nc2)CCCN(C(C)C)C1` [Compound 716]: < 100 nM and < 10 nM.
As for `CO[C@@]1(c2ccc(-c3cc4c(N5CCN(C(=O)OC6COC6)CC5)ccnn4c3)nc2)CCCN(C(C)C)C1` [Compound 718], the IC50 on human ALK2 R206H was < 100 nM; in test [1], < 10 nM.
For the compound `COC1(c2ccc(-c3cc4c(N5CCN(C(=O)NC(C)C)CC5)ccnn4c3)cc2F)CCN(C(C)C)CC1` [Compound 720], the figures for the IC50 (on human ALK2 R206H; in test [1]) were < 100 nM and < 10 nM, respectively.
For the compound `COC1(c2ccc(-c3cc4c(N5CCN(C(=O)NC(C)C)CC5)ccnn4c3)c(F)c2)CCN(C(C)C)CC1` [Compound 721], the IC50 at human ALK2 R206H was < 100 nM; in test [1], < 10 nM.
Consider `COC1(c2ccc(-c3cc4c(N5CCN(C(=O)NC(C)C)CC5)ccnn4c3)cc2F)CCCN(C(C)C)C1` (stereo not shown) [Compound 722], for which the IC50 on human ALK2 R206H is < 100 nM; in test [1], < 10 nM.
Regarding `CO[C@]1(c2ccc(-c3cc4c(N5CCN(C(=O)NC(C)C)CC5)ccnn4c3)cc2F)CCCN(C(C)C)C1` [Compound 723], the results for the IC50 (at human ALK2 R206H; in test [1]) were < 100 nM and < 10 nM, respectively.
`CO[C@@]1(c2ccc(-c3cc4c(N5CCN(C(=O)NC(C)C)CC5)ccnn4c3)cc2F)CCCN(C(C)C)C1` [Compound 724]: the IC50 on human ALK2 R206H is < 100 nM; in test [1], < 10 nM.
In the case of `COC1(c2cnc(-c3cc4c(N5CCN(C(=O)NC(C)C)CC5)ccnn4c3)c(F)c2)CCN(C(C)C)CC1` [Compound 725], the IC50 on human ALK2 R206H was < 100 nM; in test [1], < 10 nM.
The corresponding values for `CC(C)N1CCC(c2ccc(-c3cc4c(N5CCN(C(=O)OC6COC6)CC5)ccnn4c3)c(Cl)c2)CC1` [Compound 726] are 100 to 500 nM and < 10 nM.
For the compound `CC(C)N1CCC(c2ccc(-c3cc4c(N5CCN(C(=O)C6CC6)CC5)ccnn4c3)cc2)(C(F)(F)F)CC1` [Compound 727], the IC50 is < 100 nM on human ALK2 R206H and < 10 nM in test [1].
As for `COC1(c2ccc(-c3cc4c(N5CCN(C(=O)[C@H]6C[C@H](C#N)C6)CC5)ccnn4c3)cc2)CCN(C(C)C)CC1` [Compound 728], the IC50 was < 100 nM at human ALK2 R206H and < 10 nM in test [1].
In the case of `COC1(c2ccc(-c3cc4c(N5CCN(C(=O)C6CCC(C#N)CC6)CC5)ccnn4c3)cc2)CN(C(C)C)C1` (stereo not shown) [Compound 729], the IC50 at human ALK2 R206H was < 100 nM; in test [1] it was < 10 nM.
For the compound `COC1(c2ccc(-c3cc4c(N5CCN(C(=O)[C@H]6C[C@H](C#N)C6)CC5)ccnn4c3)nc2)CCN(C(C)C)CC1` [Compound 731], the IC50 at human ALK2 R206H is < 100 nM; in test [1] it was < 10 nM.
As for `CC(C)(C)OC(=O)N1CCC(N)(c2ccc(-c3cc4c(N5CCN(C(=O)C6CC6)CC5)ccnn4c3)cc2)CC1` [Compound 732], the IC50 at human ALK2 R206H was 100 to 500 nM; in test [1] it was < 10 nM.
For the compound `COC1(c2ccc(-c3cc4c(N5CCN(C(=O)OC6COC6)CC5)ccnn4c3)nc2)CCN(C2COC2)CC1` [Compound 733], the IC50 on human ALK2 R206H was < 100 nM; in test [1], < 10 nM.
Regarding `CCOC1(c2ccc(-c3cc4c(N5CCN(C(=O)OC6COC6)CC5)ccnn4c3)nc2)CCN(C(C)C)CC1` [Compound 734], the IC50 on human ALK2 R206H is < 100 nM; in test [1], < 10 nM.
In the case of `COC[C@@H](C)N1CCC(OC)(c2ccc(-c3cc4c(N5CCN(C(=O)NC(C)C)CC5)ccnn4c3)nc2)CC1` [Compound 735], the values for the 50% inhibitory concentration (IC50) (on human ALK2 R206H; in test [1]) were < 100 nM and < 10 nM, respectively.
The matching figures for `COC[C@H](C)N1CCC(OC)(c2ccc(-c3cc4c(N5CCN(C(=O)NC(C)C)CC5)ccnn4c3)nc2)CC1` [Compound 736]: < 100 nM and < 10 nM.
Consider `COC1(c2ccc(-c3cc4c(N5CCN(C(=O)OC6COC6)CC5)ccnn4c3)c(F)c2)CCN(C(C)C)CC1` [Compound 737], for which the IC50 was < 100 nM at human ALK2 R206H and < 10 nM in test [1].
Regarding `CC(C)NC(=O)N1CCN(c2ccnn3cc(-c4ccc(C5(C(F)(F)F)CCN(C(C)C)CC5)cc4)cc23)CC1` [Compound 738], the half-inhibitory concentration (IC50) is < 100 nM at human ALK2 R206H and < 10 nM in test [1].
The corresponding values for `COC1(c2ccc(-c3cc4c(N5CCN(C(=O)[C@H]6C[C@H](C#N)C6)CC5)ccnn4c3)cc2)CCN([C@H](C)CO)CC1` [Compound 739] are < 100 nM and < 10 nM.
Turning to `COC1(c2ccc(-c3cc4c(N5CCN(C(=O)[C@H]6C[C@H](C#N)C6)CC5)ccnn4c3)cc2)CCN([C@@H](C)CO)CC1` [Compound 740], the IC50 at human ALK2 R206H is < 100 nM; in test [1], < 10 nM.
Consider `COC1(c2ccc(-c3cc4c(N5CCN(C(=O)[C@H]6C[C@H](C#N)C6)CC5)ccnn4c3)nc2)CCN([C@@H](C)CO)CC1` [Compound 741], for which the IC50 is < 100 nM at human ALK2 R206H and < 10 nM in test [1].
`COC[C@H](C)N1CCC(OC)(c2ccc(-c3cc4c(N5CCN(C(=O)OC6COC6)CC5)ccnn4c3)nc2)CC1` [Compound 743]: the IC50 on human ALK2 R206H was < 100 nM; in test [1], < 10 nM.
Take `COC[C@@H](C)N1CCC(OC)(c2ccc(-c3cc4c(N5CCN(C(=O)OC6COC6)CC5)ccnn4c3)nc2)CC1` [Compound 744]: the IC50 on human ALK2 R206H is < 100 nM; in test [1], < 10 nM.
For the compound `COC[C@H](C)N1CCC(OC)(c2ccc(-c3cc4c(N5CCN(C(=O)[C@H]6C[C@H](C#N)C6)CC5)ccnn4c3)cc2)CC1` [Compound 745], the IC50 at human ALK2 R206H is < 100 nM; in test [1], < 10 nM.
Regarding `COC[C@@H](C)N1CCC(OC)(c2ccc(-c3cc4c(N5CCN(C(=O)[C@H]6C[C@H](C#N)C6)CC5)ccnn4c3)cc2)CC1` [Compound 746], the IC50 at human ALK2 R206H was < 100 nM; in test [1], < 10 nM.
For the compound `CC(C)N1CCC(c2ccc(-c3cc4c(N5CCN(C(=O)OC6COC6)CC5)ccnn4c3)cc2)(C(F)(F)F)CC1` [Compound 747], the IC50 was < 100 nM on human ALK2 R206H and < 10 nM in test [1].
The matching figures for `COC[C@H](C)N1CCC(OC)(c2ccc(-c3cc4c(N5CCN(C(=O)[C@H]6C[C@H](C#N)C6)CC5)ccnn4c3)nc2)CC1` [Compound 748]: < 100 nM and < 10 nM.
On to `COC[C@@H](C)N1CCC(OC)(c2ccc(-c3cc4c(N5CCN(C(=O)[C@H]6C[C@H](C#N)C6)CC5)ccnn4c3)nc2)CC1` [Compound 749], for which the IC50 at human ALK2 R206H was < 100 nM; in test [1], < 10 nM.
The matching figures for `COC1(c2ccc(-c3cc4c(N5CCN(C(=O)NC(C)C)CC5)ccnn4c3)nc2)CCN([C@H](C)COC(F)F)CC1` [Compound 750]: < 100 nM and < 10 nM.
On to `N[C@H](CO)c1ccc(-c2cc3c(N4CCN(C(=O)C5CC5)CC4)ccnn3c2)cc1` [Compound 752], for which the IC50 at human ALK2 R206H was 100 to 500 nM; in test [1], < 10 nM.
As for `N[C@@H](CO)c1ccc(-c2cc3c(N4CCN(C(=O)C5CC5)CC4)ccnn3c2)cc1` [Compound 753], the IC50 is < 100 nM at human ALK2 R206H and < 10 nM in test [1].
Regarding `CCOC(=O)N1CCN(c2ccnn3cc(-c4ccc([C@@H](N)CO)cc4)cc23)CC1` [Compound 754], the values for the 50% inhibitory concentration (IC50) (at human ALK2 R206H; in test [1]) were < 100 nM and < 10 nM, respectively.
For the compound `NC1(c2ccc(-c3cc4c(N5CCN(C(=O)C6CC6)CC5)ccnn4c3)cc2)COC1` [Compound 755], the results for the IC50 (on human ALK2 R206H; in test [1]) were 100 to 500 nM and < 10 nM, respectively.
The matching figures for `O=C(C1CC1)N1CCN(c2ccnn3cc(-c4ccc(CNC5COC5)cc4)cc23)CC1` [Compound 760]: 100 to 500 nM and < 10 nM.
The corresponding values for `CC(C)(O)C(N)c1ccc(-c2cc3c(N4CCN(C(=O)C5CC5)CC4)ccnn3c2)cc1` (stereo not shown) [Compound 761] are < 100 nM and < 10 nM.
For `N[C@H](CO)c1ccc(-c2cc3c(N4CCN(C(=O)OC5COC5)CC4)ccnn3c2)cc1` [Compound 762], the half-maximal inhibitory concentration (IC50) on human ALK2 R206H is 100 to 500 nM; in test [1], < 10 nM.
